Reference: patent US11209411B2, “Methods for analyzing stability of an active pharmaceutical ingredient” (Purdue Research Foundation, priority 2018, dated 2021)

Legend:
[1] = Traditional forced degradation in bulk solution, acid (HCl), nanospray MS; conditions: 450 μg/mL
Excerpt: (§1) Particularly, the degradation of three APIs in Leidenfrost droplets is exemplified, under conditions of constant volume achieved by adding make-up solvent automatically via a syringe pump during the levitation period. The data were compared with the degradation of the corresponding bulk material under similar conditions of solvent and temperature. In both droplet and bulk, degradation products are monitored by mass spectrometry and the ratio of products to reactants was used to infer the extent of reaction (Table 1).
(§2) Traditional forced degradation was performed by preparing a stock stress solution of hydrochloric acid or hydrogen peroxide, and a stock solution of the compound of interest (the API). Then the solutions were mixed and allowed to react at a set temperature for a set period of time (FIG. 1A). The composition of the final reaction mixture was analyzed by nanospray MS and the data for the bulk phase experiments are given in Table 1. Likewise, the Leidenfrost reaction mixture was made by the same method, then instead of letting the mixed solution age at a set temperature, it was dropped into a ceramic well which was placed on hot plate held at a temperature of 540° C. to form a much cooler Leidenfrost droplet (FIG. 1B). […] Here, both bulk and Leidenfrost products are analyzed by using nanospray MS.

[2] = Accelerated forced degradation in Leidenfrost droplets, acid (HCl), nanospray MS; type: physicochemical; conditions: 0.5M HCl, 90% propanol-10% H2O, without make-up solvent
Procedure: The data were compared with the degradation of the corresponding bulk material under similar conditions of solvent and temperature. In both droplet and bulk, degradation products are monitored by mass spectrometry and the ratio of products to reactants was used to infer the extent of reaction (Table 1).
as §2

[3] = Traditional forced degradation in bulk solution, oxidative (H2O2), nanospray MS; type: physicochemical; conditions: 45 μg/mL, 0.3% H2O2, 90% methanol-10% H2O
Excerpt: as §1, §2

[4] = Accelerated forced degradation in Leidenfrost droplets, oxidative (H2O2), nanospray MS; type: physicochemical; conditions: 0.3% H2O2, 90% methanol-10% H2O
Excerpt: as §1, §2

SMILES	Bulk Time ([1]; 0.5M HCl, 90% propanol-10% H2O, bulk 80° C., time to reach Set Ratio 2.5%) [h]	Set Ratio (products to reactants, extent of degradation) ([1]; 3 h) [%^]	Leidenfrost Time ([2]; 450 μg/mL, Leidenfrost droplet 80° C., time to reach Set Ratio 2.5%) [s]	Accel. Factor ([2]; Leidenfrost droplet vs bulk, 80° C.)	Set Ratio (products to reactants, extent of degradation) ([3]; 40° C., reached after 1.5 h in bulk, 180 s in Leidenfrost droplet) [%]	Bulk Time ([3]; bulk 40° C., time to reach Set Ratio 3%) [h^]	Leidenfrost Time ([4]; 45 μg/mL, Leidenfrost droplet 40° C., constant volume, time to reach Set Ratio 3%) [s]	Accel. Factor ([4]; Leidenfrost droplet vs bulk, 40° C.)
NS(=O)(=O)c1cc2c(cc1Cl)NCNS2(=O)=O [Hydrochlorothiazide (HCTZ), Hydrochlorothiazide]	3	2.5	40	~270				
CN1CCN(CCCN2c3ccccc3Sc3ccc(C(F)(F)F)cc32)CC1 [Trifluoperazine (TFP), Trifluoperazine]					3	1.5	180	~20
